Legend:
LSD1 = LSD1 (Homo sapiens (Human), UniProt O60341); test: Biochemical analysis of LSD1 histone demethylase inhibition (BPS Bioscience LSD1 fluorescence analysis kit, HRP/Amplex Red); conditions: demethylation of Lys4 of histone H3
Experimental: The biochemical inhibition activity of the synthesized compounds on LSD1 was measured. The activity measurement was performed using LSD1 fluorescence analysis kit (available from BPS Bioscience Co., Ltd., Catalog No: 50106). This analysis kit is designed to measure activity of LSD1 enzyme. H2O2 generated upon demethylation of Lys4 moiety of histone H3 by LSD1 is reacted with HRP/Amplex Red reagent to form fluorescent Resorufin, which is measured by this kit, thereby confirming demethylation.
The results are expressed as an IC50 value. As for a control, GSK2879552 (available from GlaxoSmithKline USA) was used.

NCI-H1417 cells = test: Cell growth suppression test (CellTiter-Glo Luminescent Cell Viability Assay, 10 days treatment); format: cell-based; conditions: Homo sapiens, 240 h, treated for 10 days
Experimental: Cell growth suppression effects of the synthesized compounds on NCI-H1417 cells were identified. The cells were treated with the synthesized compounds for 10 days. Then, in order to test the cell growth suppression, CellTiter-Glo Luminescent Cell Viability Assay (available from Promega, USA) was used. This test is to measure emission signals proportional to the number of ATPs based on a fixed amount of ATPs, which represents the presence of metabolically active cells, thereby determining the number of viable cells. The results are expressed as a Gl50 value. As for a control, GSK2879552 (available from GlaxoSmithKline USA) was used.

Row | Structure (SMILES) | IC50 (LSD1) [µM] | GI50 (NCI-H1417 cells) [µM]
1 | N#Cc1ccc(-c2nc3c(N4CCC[C@@H](N)C4)ccnc3n2-c2ccc(N3CC4COCC4C3)cc2F)cc1F (stereo partly drawn) [Example 49, 4-(7-((R)-3-aminopiperidine-1-yl)-3-(2-fluoro-4-(tetrahydro-1H-furo[3,4-c]pyrrole-5(3H)-yl)phenyl)-3H-imidazo[4,5-b]pyridine-2-yl)-2-fluorobenzonitrile] | 0.03 | 0.0053
2 | CO[C@H]1CCN(c2ccc(-n3c(-c4ccc(C#N)c(F)c4)nc4c(N5CCC6(CCNC6)CC5)ccnc43)c(F)c2)C1 [Example 60, (S)-2-fluoro-4-(3-(2-fluoro-4-(3-methoxypyrrolidine-1-yl)phenyl)-7-(2,8-diazaspiro[4.5]decane-8-yl)-3H-imidazo[4,5-b]pyridine-2-yl)benzonitrile] | 0.1 | 0.032
3 | CO[C@H]1CCN(c2ccc(-n3c(-c4ccc(C#N)c(F)c4)nc4c(N5CCC6CCNC6C5)ccnc43)c(F)c2)C1 (stereo partly drawn) [Example 61, 2-fluoro-4-(3-(2-fluoro-4-((S)-3-methoxypyrrolidine-1-yl)phenyl)-7-(octahydro-6H-pyrrolo[2,3-c]pyridine-6-yl)-3H-imidazo[4,5-b]pyridine-2-yl)benzonitrile] | 0.038 | 0.011
4 | CO[C@H]1CCN(c2ccc(-n3c(-c4ccc(C#N)c(F)c4)nc4c(N5CCC[C@H](N)C5)ccnc43)c(F)c2)C1 [Example 62, 4-(7-((S)-3-aminopiperidine-1-yl)-3-(2-fluoro-4-((S)-3-methoxypyrrolidine-1-yl)phenyl)-3H-imidazo[4,5-b]pyridine-2-yl)-2-fluorobenzonitrile] | 0.036 | 0.02
5 | CO[C@H]1CCN(c2ccc(-n3c(-c4ccc(C#N)c(F)c4)nc4c(N5CCC(N)C5)ccnc43)c(F)c2)C1 (stereo partly drawn) [Example 64, 4-(7-(3-aminopyrrolidine-1-yl)-3-(2-fluoro-4-((S)-3-methoxypyrrolidine-1-yl)phenyl)-3H-imidazo[4,5-b]pyridine-2-yl)-2-fluorobenzonitrile] | 0.024 | 0.014
6 | CO[C@H]1CCN(c2ccc(-n3c(-c4ccc(C#N)c(F)c4)nc4c(N5CCCC[C@@H](N)C5)ccnc43)c(F)c2)C1 [Example 67, 4-(7-((R)-3-aminoazepane-1-yl)-3-(2-fluoro-4-((S)-3-methoxypyrrolidine-1-yl)phenyl)-3H-imidazo[4,5-b]pyridine-2-yl)-2-fluorobenzonitrile] | 0.03 | 0.0027

Reference: patent publication US12479845B2, “Imidazopyridine derivative compounds and use of same” (HANMI PHARM. CO., LTD., priority 2019, dated 2025)
